In patent publication US20240109900A1, “AZABICYCLIC SHP2 INHIBITORS” (IRBM S.P.A., priority 2021, published 2024):
Like-named read-outs stand apart in the source and are kept apart here.

Tests used:
[1] = system: ERK phosphorylation in KYSE-520 cells; assay: Phospho-ERK cellular assay; assay type: cell-based; conditions: KYSE-520 cells, 2 h at 37° C., phospho-ERK1/2 (Thr202/Tyr204) TR-FRET, read-out: PERK IC50
Summary of the method: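 TR-FRET read-out of ERK1/2 Thr202/Tyr204 phosphorylation was taken after overnight antibody incubation at room temperature. Before that, KYSE-520 cells were treated 2 h at 37 °C with compound dilutions and lysed 30 min. Percent inhibition relative to vehicle and cell-free wells was fitted four-parametrically to give IC50.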

[2] = target: SHP-2 enzyme (Met1-Leu525) (Homo sapiens (Human), UniProt Q06124); assay: SHP2 inhibition enzymatic assay; assay type: biochemical; conditions: 0.5 nM SHP-2 activated by 500 nM IRS1 peptide, 75 μM DiFMUP substrate; read-out: SHP2wt-IC50
SHP-2 enzyme (Met1-Leu525), sequence (Q06124 1-525): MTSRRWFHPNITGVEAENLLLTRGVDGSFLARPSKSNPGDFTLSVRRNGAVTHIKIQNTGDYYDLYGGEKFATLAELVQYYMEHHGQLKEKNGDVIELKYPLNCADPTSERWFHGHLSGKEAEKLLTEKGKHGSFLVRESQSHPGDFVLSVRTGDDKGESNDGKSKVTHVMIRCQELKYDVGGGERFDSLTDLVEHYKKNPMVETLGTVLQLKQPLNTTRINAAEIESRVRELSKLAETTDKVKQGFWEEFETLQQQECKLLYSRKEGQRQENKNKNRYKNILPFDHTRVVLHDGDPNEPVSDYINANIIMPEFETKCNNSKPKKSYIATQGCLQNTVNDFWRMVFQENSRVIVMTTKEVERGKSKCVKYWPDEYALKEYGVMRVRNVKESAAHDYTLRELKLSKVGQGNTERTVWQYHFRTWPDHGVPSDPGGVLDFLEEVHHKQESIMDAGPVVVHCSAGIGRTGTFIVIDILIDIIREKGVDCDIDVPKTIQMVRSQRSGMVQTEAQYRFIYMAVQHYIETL
Summary of the method: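 Compounds were preincubated 30 min with 0.5 nM SHP-2 (Met1-Leu525) plus 500 nM IRS1 activating peptide (pH 7.2 HEPES, 5 mM DTT), then 75 μM DiFMUP substrate reacted 30 min at room temperature. After bpV quench, DiFMUP fluorescence gave % inhibition; four-parameter logistic fit yielded IC50.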

| IC50 ([1]; Homo sapiens, KYSE-520, 2 h) | IC50 [2] | IC50 [1] | SMILES | IC50 ([1]; Homo sapiens) |
| --- | --- | --- | --- | --- |
| > 5000 nM | < 500 nM |  | NC[C@]1(c2ccccc2F)[C@@H]2CCN(c3cnc4c(-c5cc(C(=O)O)ccc5Cl)n[nH]c4n3)C[C@@H]21 [Example 277, 3-(6-((1S,6R,7R)-7-(aminomethyl)-7-(2-fluorophenyl)-3-azabicyclo[4.1.0]heptan-3-yl)-1H-pyrazolo[3,4-b]pyrazin-3-yl)-4-chlorobenzoic acid] |  |
| < 1000 nM | < 500 nM |  | Cn1c(-c2n[nH]c3nc(N4CC[C@@H]5[C@H](C4)[C@@]5(CN)c4ccccc4F)cnc23)ccc(Cl)c1=O [Example 278, 6-(6-((1S,6R,7R)-7-(aminomethyl)-7-(2-fluorophenyl)-3-azabicyclo[4.1.0]heptan-3-yl)-1H-pyrazolo[3,4-b]pyrazin-3-yl)-3-chloro-1-methylpyridin-2(1H)-one] |  |
| < 1000 nM | < 500 nM |  | NC[C@]1(c2ccccc2F)[C@@H]2CCN(c3cnc4c(-c5ccc(C(=O)NC6CC6)c6ncccc56)n[nH]c4n3)C[C@@H]21 [Example 279, 5-(6-((1S,6R,7R)-7-(aminomethyl)-7-(2-fluorophenyl)-3-azabicyclo[4.1.0]heptan-3-yl)-1H-pyrazolo[3,4-b]pyrazin-3-yl)-N-cyclopropylquinoline-8-carboxamide] |  |
| < 1000 nM | < 500 nM |  | CC(C)n1cc2c(Cl)c(-c3n[nH]c4nc(N5CC[C@@H]6[C@H](C5)[C@@]6(CN)c5ccccc5F)cnc34)ccc2n1 [Example 280, ((1S,6R,7R)-3-(3-(4-chloro-2-isopropyl-2H-indazol-5-yl)-1H-pyrazolo[3,4-b]pyrazin-6-yl)-7-(2-fluorophenyl)-3-azabicyclo[4.1.0]heptan-7-yl)methanamine] |  |
| > 5000 nM | < 500 nM |  | NC[C@]1(c2ccccc2F)[C@@H]2CCN(c3cnc4c(-c5cc(C(N)=O)ccc5Cl)n[nH]c4n3)C[C@@H]21 [Example 281, 3-(6-((1S,6R,7R)-7-(aminomethyl)-7-(2-fluorophenyl)-3-azabicyclo[4.1.0]heptan-3-yl)-1H-pyrazolo[3,4-b]pyrazin-3-yl)-4-chlorobenzamide] |  |
| < 1000 nM | < 500 nM |  | CS(=O)(=O)NC(=O)c1ccc(-c2n[nH]c3nc(N4CC[C@@H]5[C@H](C4)[C@@]5(CN)c4ccccc4F)cnc23)c2cccnc12 [Example 282, 5-(6-((1S,6R,7R)-7-(aminomethyl)-7-(2-fluorophenyl)-3-azabicyclo[4.1.0]heptan-3-yl)-1H-pyrazolo[3,4-b]pyrazin-3-yl)-N-(methylsulfonyl)quinoline-8-carboxamide] |  |
| < 1000 nM | < 500 nM |  | NC[C@]1(c2ccccc2F)[C@@H]2CCN(c3cnc4c(-c5ccnc(-c6cncnc6)c5Cl)n[nH]c4n3)C[C@@H]21 [Example 284, ((1S,6R,7R)-3-(3-(3-chloro-2-(pyrimidin-5-yl)pyridin-4-yl)-1H-pyrazolo[3,4-b]pyrazin-6-yl)-7-(2-fluorophenyl)-3-azabicyclo[4.1.0]heptan-7-yl)methanamine] |  |
| > 5000 nM | < 500 nM |  | NC[C@]1(c2ccccc2F)[C@@H]2CCN(c3cnc4c(-c5ccc(-c6nn[nH]n6)cc5Cl)n[nH]c4n3)C[C@@H]21 [Example 285, ((1S,6R,7R)-3-(3-(2-chloro-4-(2H-tetrazol-5-yl)phenyl)-1H-pyrazolo[3,4-b]pyrazin-6-yl)-7-(2-fluorophenyl)-3-azabicyclo[4.1.0]heptan-7-yl)methanamine] |  |
| > 5000 nM | < 500 nM |  | CN(C)C(=O)C1(CN)C2CCN(c3cnc4c(-c5ccc6nn(C)cc6c5Cl)n[nH]c4n3)CC21 (centres unmarked) [Example 286, 7-(aminomethyl)-3-(3-(4-chloro-2-methyl-2H-indazol-5-yl)-1H-pyrazolo[3,4-b]pyrazin-6-yl)-N,N-dimethyl-3-azabicyclo[4.1.0]heptane-7-carboxamide] |  |
| < 1000 nM | < 500 nM |  | CNC(=O)C1(CN)C2CCN(c3cnc4c(-c5ccc6nn(C)cc6c5Cl)n[nH]c4n3)CC21 (centres unmarked) [Example 287, 7-(aminomethyl)-3-(3-(4-chloro-2-methyl-2H-indazol-5-yl)-1H-pyrazolo[3,4-b]pyrazin-6-yl)-N-methyl-3-azabicyclo[4.1.0]heptane-7-carboxamide] |  |
| < 1000 nM | < 500 nM |  | Cn1c(=O)[nH]c2cc(-c3n[nH]c4nc(N5CC[C@@H]6[C@H](C5)[C@@]6(CN)c5ccccc5F)cnc34)ccc21 [Example 289, 5-(6-((1S,6R,7R)-7-(aminomethyl)-7-(2-fluorophenyl)-3-azabicyclo[4.1.0]heptan-3-yl)-1H-pyrazolo[3,4-b]pyrazin-3-yl)-1-methyl-1,3-dihydro-2H-benzo[d]imidazol-2-one] |  |
| < 1000 nM | < 500 nM |  | NC[C@]1(c2ccccc2F)[C@@H]2CCN(c3cnc4c(-c5ccc6ncncc6c5)n[nH]c4n3)C[C@@H]21 [Example 290, ((1S,6R,7R)-7-(2-fluorophenyl)-3-(3-(quinazolin-6-yl)-1H-pyrazolo[3,4-b]pyrazin-6-yl)-3-azabicyclo[4.1.0]heptan-7-yl)methanamine] |  |
| < 1000 nM | < 500 nM |  | Cn1cc2c(Cl)c(-c3n[nH]c4nc(N5CC[C@@H]6[C@H](C5)[C@@]6(CN)c5cc(F)cc(F)c5)cnc34)ccc2n1 [Example 291, ((1S,6R,7R)-3-(3-(4-chloro-2-methyl-2H-indazol-5-yl)-1H-pyrazolo[3,4-b]pyrazin-6-yl)-7-(3,5-difluorophenyl)-3-azabicyclo[4.1.0]heptan-7-yl)methanamine] |  |
| > 5000 nM | < 500 nM |  | COc1cc(-c2n[nH]c3nc(N4CC[C@@H]5[C@H](C4)[C@@]5(CN)c4ccccc4F)cnc23)cc2[nH]c(=O)[nH]c12 [Example 292, 6-(6-((1S,6R,7R)-7-(aminomethyl)-7-(2-fluorophenyl)-3-azabicyclo[4.1.0]heptan-3-yl)-1H-pyrazolo[3,4-b]pyrazin-3-yl)-4-methoxy-1,3-dihydro-2H-benzo[d]imidazol-2-one] |  |
| < 1000 nM | < 500 nM |  | NC[C@]1(c2ccccc2F)[C@@H]2CCN(c3cnc4c(-c5cccc6c5CCC(=O)N6)n[nH]c4n3)C[C@@H]21 [Example 293, 5-(6-((1S,6R,7R)-7-(aminomethyl)-7-(2-fluorophenyl)-3-azabicyclo[4.1.0]heptan-3-yl)-1H-pyrazolo[3,4-b]pyrazin-3-yl)-3,4-dihydroquinolin-2(1H)-one] |  |
| < 1000 nM | < 500 nM |  | NC[C@]1(c2ccccc2F)[C@@H]2CCN(c3cnc4c(-c5ccc6cc[nH]c(=O)c6c5)n[nH]c4n3)C[C@@H]21 [Example 294, 7-(6-((1S,6R,7R)-7-(aminomethyl)-7-(2-fluorophenyl)-3-azabicyclo[4.1.0]heptan-3-yl)-1H-pyrazolo[3,4-b]pyrazin-3-yl)isoquinolin-1(2H)-one] |  |
| < 1000 nM | < 500 nM |  | NC[C@]1(c2ccccc2F)[C@@H]2CCN(c3cnc4c(-c5ccc(-c6noc(O)n6)cc5Cl)n[nH]c4n3)C[C@@H]21 [Example 295, 3-(4-(6-((1S,6R,7R)-7-(aminomethyl)-7-(2-fluorophenyl)-3-azabicyclo[4.1.0]heptan-3-yl)-1H-pyrazolo[3,4-b]pyrazin-3-yl)-3-chlorophenyl)-1,2,4-oxadiazol-5-ol] |  |
| < 1000 nM | < 500 nM |  | NC[C@]1(c2ccccc2F)[C@@H]2CCN(c3cnc4c(-c5ccc(-c6ccn[nH]6)cc5Cl)n[nH]c4n3)C[C@@H]21 [Example 296, ((1S,6R,7R)-3-(3-(2-chloro-4-(1H-pyrazol-5-yl)phenyl)-1H-pyrazolo[3,4-b]pyrazin-6-yl)-7-(2-fluorophenyl)-3-azabicyclo[4.1.0]heptan-7-yl)methanamine] |  |
| < 1000 nM | < 500 nM |  | Cn1cc(-c2ccc(-c3n[nH]c4nc(N5CC[C@@H]6[C@H](C5)[C@@]6(CN)c5ccccc5F)cnc34)c(Cl)c2)cn1 [Example 297, ((1S,6R,7R)-3-(3-(2-chloro-4-(1-methyl-1H-pyrazol-4-yl)phenyl)-1H-pyrazolo[3,4-b]pyrazin-6-yl)-7-(2-fluorophenyl)-3-azabicyclo[4.1.0]heptan-7-yl)methanamine] |  |
|  | < 500 nM | < 1000 nM | NC[C@]1(c2ccccc2F)[C@@H]2CCN(c3cnc4c(-c5ccc6[nH]c(=O)[nH]c6c5Cl)n[nH]c4n3)C[C@@H]21 [Example 302] |  |
| < 1000 nM | < 500 nM |  | NC[C@]1(c2cc(F)cc(F)c2)[C@@H]2CCN(c3cnc4c(-c5ccc6c(=O)[nH]ccc6c5F)n[nH]c4n3)C[C@@H]21 [Example 306, 6-(6-((1S,6R,7R)-7-(aminomethyl)-7-(3,5-difluorophenyl)-3-azabicyclo[4.1.0]heptan-3-yl)-1H-pyrazolo[3,4-b]pyrazin-3-yl)-5-fluoroisoquinolin-1(2H)-one] |  |

| SMILES | IC50 ([1]; Homo sapiens, KYSE-520, 2 h) | IC50 [2] | IC50 [1] | IC50 ([1]; Homo sapiens) |
| --- | --- | --- | --- | --- |
| Cc1csc([C@@]2(CN)[C@@H]3CN(c4cnc5c(-c6ccc(-n7cccn7)cc6Cl)n[nH]c5n4)C[C@@H]32)n1 [Example 283, ((1R,5S,6r)-3-(3-(2-chloro-4-(1H-pyrazol-1-yl)phenyl)-1H-pyrazolo[3,4-b]pyrazin-6-yl)-6-(4-methylthiazol-2-yl)-3-azabicyclo[3.1.0]hexan-6-yl)methanamine] |  | < 500 nM |  | < 1000 nM |
